Data taken from US8080644B2, “Oligonucleotide analogues” (Exiqon A/S, priority 1997, dated 2011).
l = locked nucleic acid (LNA); d = 2'-deoxy (DNA)

Legend:
[1] = test system: MCF-7 human breast cancer cells
[2] = test system: Nras amplicons (Nras 910, Nras 600, Nras 200); test: Capture of Nras PCR amplicons by immobilised probes; assay type: binding, human; conditions: native amplicons; 1 pmol probe per well
Experimental: Three DIG labelled amplicons from Nras sequence (ref.: Nucleic Acid Research, 1985, Vol. 13, No. 14, p 52-55) were generated by PCR amplification as follows:
PCR reaction mixture for Nras amplicons: 2.3 μl human placental genomic DNA (440 ng/μl), 50 μl 10×PCR buffer (without MgCl2 Perkin Elmer), 30 μl 25 mM MgCl2, 50 μl dNTP-mix (2 mM dATP, dCTP, dGTP and 1.8 mM dTTP), 10 μl 1 mM Dig-11-dUTP, 10 μl 25 μM forward primer, 10 μl 25 μM reverse primer, 5 μl 5 U/μl AmpliTaq Gold (Perkin Elmer) and water ad 500 μl. PCR reaction: The above mixture was made for all the Nras PCR products. The only difference being reverse primer 910 bp, 600 bp or 200 bp added once at a time. The PCR mixtures were aliquoted into ten PCR tubes each and cycled in a Perkin Elmer 9600 at the following conditions: 95° C. 3 min; 55° C. 2 min, 72° C. 3 min, 95° C. 1 min (30 cycles); 55° C. 2 min, 72° C. 10 min and 4° C. soak. 10 μl from each PCR reaction was analysed on a standard agarose gel and the expected fragments of approximately 910 bp, 600 bp and 200 bp were observed. Assay conditions: Wells of a streptavidin coated micro-titer plate (Boehringer Mannheim; binding capacity of 20 pmol biotin per well) were incubated for 1 hour in 5×SSCT (0.75 M NaCl, 75 mM citrate, pH 7.0, 0.1% Tween 20) at 37° C. with either 1 pmol of DNA Nras Cap A (biotin-5′-TTCCACAGCACAA-3′) (SEQ ID NO:37), LNA/DNA Nras Cap A (biotin-5′-TTCCACAGCACAA-3′) (SEQ ID NO:38), LNA Nras Cap A (biotin-5′-TTCCACAGCACAA-3′) (SEQ ID NO:39), DNA Nras Cap B (biotin-5′-AGAGCCGATAACA-3′) (SEQ ID NO:40), LNA/DNA Nras Cap B (biotin-5′-AGAGCCGATAACA-3′) (SEQ ID NO:41) or LNA Nras Cap B (biotin-5′-AGAGCCGATAACA-3′) (SEQ ID NO:42); LNA nucleosides in bold. The Nras Cap A capture probes capture amplicons Nras 910, Nras 600 and Nras 200. Nras Cap B capture probes capture specific amplicons Nras 910 and Nras 600. After incubation with the different capture probes, the wells were washed in 5×SSCT and 5 μl native or denatured (95° C. 5 min and 10 min on ice) DIG-labelled amplicons (Nras 910, Nras 600 or Nras 200) in 95 μl 1×SSCT (0.15 M NaCl, 15 mM citrate, pH 7.0, 0.1% Tween 20) were added per well and incubated for 1 hour at 37° C. The wells were washed three times in phosphate buffered saline (1×PBST, 0.15 M Nat, pH 7.2, 0.05% Tween 20) and incubated 30 min at 37° C. with 200 μl peroxidase labelled anti-DIG antibodies (Boehringer Mannheim, diluted 1:1000 in 1×PBST). Finally the wells were washed three times in 1×PBST and assayed for peroxidase activity by adding 100 μl of substrate solution (0.1 M citrate-phosphate buffer pH 5.0, 0.66 mg/ml ortho-phenylenediamine dihydrochloride, 0.012% H2O2) the reaction was stopped after 9 min by adding 100 μl 0.5 M H2SO4 and diluted 4 times in H2SO4 before the absorbance at 492 nm was read in a micro-titer plate reader. […] We conclude that LNA modified oligos containing mixed LNA nucleosides (A, T, G or C LNA nucleosides) function efficiently in sequence specific capture of PCR amplicons when immobilised on a solid surface. We further conclude that LNA offers a means to construct capture probes that will function efficiently in amplicon capture without prior denaturation i.e. capture by strand displacement. This ability facilitates a significant simplification of current amplicon detection formats based on DNA.

Exonuclease III = Exonuclease III (Escherichia coli, UniProt P09030); conditions: for full length product left after the 5 minute incubation: 10 Units Exonuclease III, 37° C., 5 min, primer hybridised to template; for full length band, % of the signal: in the absence of the enzyme
[3] = test system: terminal deoxynucleotidyl transferase (TdT); test: Tailing of primers with dATP; assay type: biochemical; conditions: 4 pmol primer, 25 U TdT, 16 μM dATP, 90 min, 37° C.
Experimental: The ability of terminal deoxynucleotidyl transferase (TdT) to tail LNA modified oligonucleotides depends on the design of the oligomer. The following 15mer primers and a mixture of 8 to 32 base oligonucleotide markers were 5′ end labelled with [γ^33P] ATP and T4 polynucleotide kinase (where LNA monomers are in bold):
Reactions were boiled for 5 min after labelling to remove any PNK activity. Four picomoles of each labelled primer, 25 U terminal deoxynucleotidyl transferase and 16 μM dATP were incubated in 25 μl 100 mM cacodylate buffer pH 7.2, 2 mM CoCl2 and 0.2 mM 2-mercapto-ethanol for 90 min at 37° C. The reactions were stopped by the addition of formamide stop solution and the reaction products run on a 19% polyacrylamide 7 M urea gel with the labelled markers. Autoradiography using Biomax film was carried out on the dry gel. […] Primer PZ2 (lane 5) was not extended under these reaction conditions. We conclude that the TdT enzyme will tolerate LNA monomers within the oligonucleotide, but not at the extreme 3′ end.

[4] = target: exonuclease free Klenow fragment DNA polymerase I (EFK) (Escherichia coli, UniProt P00582, D355A/E357A); conditions: 500 μM LNA NTP, 2 units EFK, 37° C., 3 min
Experimental: A primer extension assay was used to evaluate the LNA NTP's (see Example 123), ribonucleotides, as substrates for exonuclease free Klenow fragment DNA polymerase I (EFK). The assay used a ^33P 5′ end labelled 15mer primer hybridised to one of four different 24mer templates. The sequences of the primer and templates are (LNA monomer in bold):
One picomole ^33P labelled primer was hybridised to 2 picomoles of template in ×2 Klenow buffer. To this was added either 4 μM dNTPαS or 500 μM LNA NTP or a mixture of 4 μM dNTPαS and 500 μM LNA NTP. Two units of EFK DNA polymerase was added to each reaction. 2 mU inorganic pyrophosphatase was added to each of the reactions. Primer plus template plus enzyme controls were also carried out. All reactions were carried out in a total volume of 20 μl. The reactions were incubated at 37° C. for 3 min. Reactions were then stopped by the addition of 10 μl formamide EDTA stop solution. Reaction products were separated on a 19% polyacrylamide 7M urea gel and the product fragments sized by comparison with a ^33P labelled 8 to 32 base oligonucleotide ladder after exposure to Kodak Biomax autoradiography film.

[5] = target: terminal deoxynucleotidyl transferase (TdT) (Bos taurus, UniProt P06526); test: Oligonucleotide tailing reaction with triphosphate as substrate; assay type: biochemical; conditions: 15mer primer, 25 U TdT, 32, 64 or 128 μM triphosphate, 90 min, 37° C.
Experimental: LNA-thymidine-5'-triphosphate (LNA-TTP) as a substrate for terminal deoxynucleotidyl transferase (TdT). In order to test the ability of the triphosphate of LNA-TTP (Example 123) to be accepted by terminal deoxynucleotidyl transferase as a substrate, an oligonucleotide tailing reaction was performed. A 15mer primer (sequence: [NT] ID NO:14) and a mixture of 8 to 32 base oligonucleotide markers were 5' end labelled with [γ^33P] ATP and T4 polynucleotide kinase. Reactions were boiled for 5 min after labelling to remove any PNK activity. Four picomoles of the labelled primer, 25 U terminal deoxynucleotidyl transferase and 32, 64 or 128 μM dTTP or LNA-TTP were incubated in 25 μl 100 mM cacodylate buffer pH 7.2, 2 mM CoCl2 and 0.2 mM 2-mercaptoethanol for 90 min at 37° C. […] Autoradiography using Biomax film was carried out on the dry gel.

Compound: AL17: LNA oligo 5′-d(ATA AAG TGT AAA G)-3′ (SEQ ID NO:58); also fluorescein/FITC-labelled (DNA ATAAAGTGTAAAG; LNA-containing, positions not given here, fluorescein label)
- added radioactivity associated with cellular material [1]: approximately 0.4%

Compound: LNA Cap B: biotin-5′-AGAGCCGATAACA-3′ (SEQ ID NO:42), spiked with 12 LNA nucleosides (12 LNA nucleosides, positions not given here, 5' biotin)
- capture of specific amplicons without prior denaturation [2]: capture very efficiently the specific amplicons without prior denaturation

Compound: PZ2: 5′-GC ATG TGC TGG AGA T-3′ (SEQ ID NO: 13), single LNA monomer at the 3′ end (DNA GCATGTGCTGGAGAT; sugars from the 5' end d14 l1, backbone and methylation of C not given here)
- full length product left after the 5 minute incubation (Exonuclease III): 62%
- full length band, % of the signal (Exonuclease III): 96%
- tail length [3]: not extended

Compound: Nc1nc2c(ncn2[C@@H]2O[C@@]3(COP(=O)(O)OP(=O)(O)OP(=O)(O)O)CO[C@@H]2[C@@H]3O)c(=O)[nH]1 [LNA GTP]
- incorporation into a DNA strand [4]: able to produce the +1 product with efficient extension of the primer

Compound: DNA Nras Cap B: biotin-5′-AGAGCCGATAACA-3′ (SEQ ID NO:40), DNA capture probe (DNA, 5' {Biotin}, backbone not given here) [reference compound]
- capture of specific amplicons without prior denaturation [2]: do not capture the specific amplicons at all

Compound: O=c1ccn([C@@H]2O[C@@]3(COP(=O)(O)OP(=O)(O)OP(=O)(O)O)CO[C@@H]2[C@@H]3O)c(=O)[nH]1 [LNA UTP]
- incorporation into a DNA strand [4]: specifically incorporated as a “T”

Compound: DNA Nras Cap A: biotin-5′-TTCCACAGCACAA-3′ (SEQ ID NO:37), DNA capture probe (DNA, 5' {Biotin}, backbone not given here) [reference compound]
- capture of specific amplicons without prior denaturation [2]: do not capture the specific amplicons at all

Compound: Nc1ncnc2c1ncn2[C@@H]1O[C@@]2(COP(=O)(O)OP(=O)(O)OP(=O)(O)O)CO[C@@H]1[C@@H]2O [LNA ATP]
- incorporation into a DNA strand [4]: efficiently incorporated to give the +1 product

Compound: ODN#10: oligodeoxynucleotide (SEQ ID NO:56), a 35-mer complementary to human Cathepsin D (DNA TTAACGTAGGTGCTGGACTTGTCGCTGTTGTACTT; DNA, backbone and methylation of C not given here) [reference compound]
- added radioactivity associated with cellular material [1]: approximately 1.4%

Compound: P2: 5′-GC ATG TGC TGG AGA T-3′ (SEQ ID NO: 11), DNA primer (DNA GCATGTGCTGGAGAT; DNA, backbone and methylation of C not given here) [reference compound]
- full length product left after the 5 minute incubation (Exonuclease III): 20%
- full length band, % of the signal (Exonuclease III): 99%

Compound: Nc1ccn([C@@H]2O[C@@]3(COP(=O)(O)OP(=O)(O)OP(=O)(O)O)CO[C@@H]2[C@@H]3O)c(=O)n1 [LNA CTP]
- incorporation into a DNA strand [4]: efficiently incorporated to give the +1 product on Template 4

Compound: Cc1cn(C2OC3(COP(=O)(O)OP(=O)(O)OP(=O)(O)O)COC2C3O)c(=O)[nH]c1=O (stereo not shown) [LNA-TTP, LNA-thymidine-5′-triphosphate]
- fraction of +1 product extended by a further base [5]: ~50%
- primer extension product [5]: extended by one base

Compound: LNA/DNA Nras Cap B: biotin-5′-AGAGCCGATAACA-3′ (SEQ ID NO:41), spiked with 4 LNA nucleosides (LNA nucleosides spiked in, positions not given here, 5' biotin)
- capture of specific amplicons without prior denaturation [2]: capture the same amplicons with a lower efficiency

Compound: Cc1cn([C@H]2C[C@H](O)[C@@H](COP(=O)(O)OP(=O)(O)OP(=O)(O)O)O2)c(=O)[nH]c1=O [dTTP, reference compound]
- primer extension product [5]: greater than 100 nucleotides

Compound: LNA Nras Cap A: biotin-5′-TTCCACAGCACAA-3′ (SEQ ID NO:39), spiked with 12 LNA nucleosides (LNA nucleosides spiked in, positions not given here, 5' biotin)
- capture of specific amplicons without prior denaturation [2]: capture very efficiently the specific amplicons without prior denaturation
